Test results published in patent US8518874B2, “HCV inhibitors” (Virobay, Inc., priority 2005, dated 2013).

test system: HCV replication (HCV replicon RNA in Huh7/Clone A cells); assay: HCV Replicon Assay; format: cell-based; details: Hepatitis C virus, Huh-7, 48 h, read-out: IC50 for inhibition of HCV replication
Description: The HCV replicon assay is a cell-culture system that mimics in vivo HCV replication and provides a system to study HCV replication in vitro. It was created by transfecting cloned viral RNA derived from a consensus HCV genomic sequence into human Huh7 hepatoma cells that are semi-permissive for viral RNA production (Lohmann V., Korner F., Koch J.-O., Herian U., Theilmann L. and Bartenschlager R. (1999). Replication of subgenomic Hepatitis C virus RNAs in a hepatoma cell line. Science 285, 110-113 and Blight K. J., Kolykhalov A. A. and Rice C. M. (2000). Efficient initiation of HCV RNA Replication in cell culture. Science 290, […]). These transfected cell lines contain a subgenomic HCV RNA genome that includes (1) the HCV 5′NTR fused to 12 amino acids of the capsid coding region, (2) the neomycin phosphotransferase gene (Neo) as a selectable marker, (3) the internal ribosome entry site (IRES) from encephalomyocarditis virus (EMCV) that directs translation of HCV non-structural proteins (variously NS2 or NS3 to NS5B), and (4) the 3′ NTR. Replicon-containing cells autonomously and persistently replicate HCV RNA that can be measured quantitatively by real-time qPCR. Therefore, the replicon system facilitates quantitative assessment of anti-viral activity by monitoring changes in HCV RNA replication in a cell-based assay.
HCV replicon-containing cells (Huh7/Clone A) were routinely maintained in Clone A growth medium (DMEM medium [Invitrogen], supplemented with 10% Fetal Bovine Serum, 1% Non Essential Amino Acids and 1 g/L G418). Test compounds were dissolved in dimethyl sulfoxide (DMSO) to make 200× stock solutions for all doses prior to treatment.
For the HCV replicon assay, Huh7/Clone A cells were trypsinized from culture flasks, seeded in 1 ml of Clone A growth medium without G418 at 4×10^4 cells per well in 24-well plates and incubated at 37° C. in a humidified CO2 (5%) incubator overnight. Following overnight incubation, compound solutions were added into wells in the same volume (5 μl of 200× compound stock per well) to give a final DMSO concentration of 0.5%. Three wells on each plate supplemented with 5 μl of DMSO served as untreated controls. For IC50 determinations, compounds were tested at 7 serial dilutions in triplicates from the starting stock solutions. The plates were incubated at 37° C. for 48 hours. After incubation, cells were harvested, transferred to 96-well plates, and subjected to total RNA extraction using the RNA Isolation Kit (RNeasy 96, Qiagen) according to the protocol described by the manufacture's RNeasy 96 Handbook (Qiagen).
Total RNA eluted in 130 μl of RNase-free dH2O was quantitated by the RiboGreen Assay according to the supplier's protocol (Molecular Probe). Briefly, 5 μl of RNA samples were aliquoted in duplicate to a 96-well black microplate and a 96-well TaqMan Optical plate. RNA samples in the black microplate were mixed with 95 μl of diluted RiboGreen:reagent (1:250 dilution in TE buffer) and sample fluorescence was measured using a fluorescence microplate reader at standard fluorescein wavelengths (excitation ˜480 nm, emission ˜520 nm). Ribosomal RNA (Molecular Probe) was used as standard.
TaqMan quantitative PCR (RT-qPCR) was used to quantitate the amount of HCV replicon RNA in each sample. The RT-qPCR reactions were performed in 25 μl on an ABI PRISM 7900 HT Sequence Detection System (Applied Biosystems). The reaction mixture contained 5 μl of total RNA (10-100 ng), 1×TaqMan Buffer A (Applied Biosystems), 5.5 mM MgCl2, 1.2 mM dNTP mix, 0.625 U of AmpliTaq Gold (Applied Biosystems), 5 U of MMLV reverse transcriptase (Promega), 5 U of rRNasin (Promega), 300 nM each of the forward and reverse primers, and 100 nM TaqMan MGB probe. […]

How did the IC50 turn out when `CC(C)(C)NC(=O)N[C@H](C(=O)N1CC(Oc2ccc(Cl)cn2)C[C@H]1C(=O)N[C@@H](CC1CCC1)C(=O)C(=O)NC1CC1)C(C)(C)C` (stereo partly drawn) [Compound 3, 1-[2S-(3-tert-butylureido)-3,3-dimethylbutyryl]-4R-(5-chloropyridin-2-yloxy)-pyrrolidine-2S-carboxylic acid (1S-cyclobutylmethyl-2-cyclopropylcarbamoyl-2-oxoethyl)-amide] was run?
The IC50 was < 50 µM.

For `CC(C)(C)OC(=O)N[C@H](C(=O)N1C[C@H](Oc2ccc(Cl)cn2)C[C@H]1C(=O)N[C@@H](CC1CCC1)C(=O)C(=O)NC1CC1)C(C)(C)C` [Compound 7, {1S-[4R-(5-chloropyridin-2-yloxy)-2S-(1S-cyclobutylmethyl-2-cyclopropylcarbamoyl-2-oxo-ethylcarbamoyl)-pyrrolidine-1-carbonyl]-2,2-dimethyl-propyl}-carbamic acid tert-butyl ester], which IC50 is on record?
Its IC50 is < 50 µM.

Which IC50 does the source give for `CCC[C@H](NC(=O)[C@@H]1C[C@@H](Oc2ccc(Cl)cn2)CN1C(=O)[C@@H](NC(=O)OC(C)(C)C)C(C)(C)C)C(=O)C(=O)NC1CC1` [Compound 6, {1S-[4R-(5-chloropyridin-2-yloxy)-2S-(1S-cyclopropylaminooxalylbutyl-carbamoyl)-pyrrolidine-1-carbonyl]-2,2-dimethyl-propyl}-carbamic acid tent-butyl ester] here?
The IC50 was < 50 µM.

same assay, conditions: Hepatitis C virus, Huh-7; HCV replicon-containing Huh7/Clone A cells, 48 hours incubation, replicon RNA by RT-qPCR normalized to total RNA; read-out: IC50 for inhibition of HCV replication

Which IC50 does the source give for `CCC[C@H](NC(=O)[C@@H]1CC(Oc2nccc3cc(OCC)ccc23)CN1C(=O)[C@@H](NC(=O)NC(C)(C)C)C(C)(C)C)C(=O)C(=O)NC1CC1` (stereo partly drawn) [Compound 12, 1-[2S-(3-tert-Butyl-ureido)-3,3-dimethyl-butyryl]-4R-(6-ethoxy-isoquinolin-1-yloxy)-pyrrolidine-2S-carboxylic acid (1S-cyclopropylaminooxalyl-butyl)-amide] here?
Its IC50 is < 10 µM.

Which IC50 does the source give for `COc1ccc2c(OC3C[C@@H](C(=O)N[C@@H](CC4CC4)C(=O)C(=O)NC4CC4)N(C(=O)[C@@H](NC(=O)NC(C)(C)C)C(C)(C)C)C3)nccc2c1` (stereo partly drawn) [Compound 10, 1-[2S-(3-tert-Butyl-ureido)-3,3-dimethyl-butyryl]-4R-(6-methoxy-isoquinolin-1-yloxy)-pyrrolidine-2S-carboxylic acid (2-cyclopropylcarbamoyl-1S-cyclopropylmethyl-2-oxo-ethyl)-amide] here?
Its IC50 is < 10 µM.

How did the IC50 turn out when `CCC[C@H](NC(=O)[C@@H]1C[C@@H](Oc2ccc(Cl)cn2)CN1C(=O)[C@@H](NC(=O)NC(C)(C)C)C(C)(C)C)C(=O)C(=O)NC1CC1` [Compound 8, 1-[2-(3-tert-butylureido)-3,3-dimethyl-butyryl]-4-(5-chloro-pyridin-2-yloxy)-pyrrolidine-2-carboxylic acid (1-cyclopropylaminooxalyl-butyl)-amide] was run?
Its IC50 is < 10 µM.

`CCCC[C@H](NC(=O)[C@@H]1CC(Oc2nccc3cc(OC)ccc23)CN1C(=O)[C@@H](NC(=O)NC(C)(C)C)C(C)(C)C)C(=O)C(=O)NC1CC1` (stereo partly drawn) [Compound 13, 1-[2S-(3-tert-Butyl-ureido)-3,3-dimethyl-butyryl]-4R-(6-methoxy-isoquinolin-1-yloxy)-pyrrolidine-2S-carboxylic acid (1S-cyclopropylaminooxalyl-pentyl)-amide] was tested. Which IC50 did it give?
Its IC50 is < 10 µM.

With `CCOc1ccc2c(OC3C[C@@H](C(=O)N[C@@H](CC4CC4)C(=O)C(=O)NC4CC4)N(C(=O)[C@@H](NC(=O)NC(C)(C)C)C(C)(C)C)C3)nccc2c1` (stereo partly drawn) [Compound 11, 1-[2S-(3-tert-Butyl-ureido)-3,3-dimethyl-butyryl]-4R-(6-ethoxy-isoquinolin-1-yloxy)-pyrrolidine-2-carboxylic acid (2-cyclopropylcarbamoyl-1S-cyclopropylmethyl-2S-oxo-ethyl)-amide] as the compound, how does the IC50 read?
The IC50 was < 10 µM.
